Values joined by “and” are separate entries in the source; they are usually repeats but may differ in a detail not shown here. Equal entries are not always repeated.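 Five compound concentrations were applied to cells in 96-well plates for 48 hours; endpoints were derived by simple linear interpolation of the resulting dose-response curve. The concentration for 50% growth inhibition is given as GI50. The concentration for full growth arrest is given as TGI.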
Key:
Experiment in all cases: NCI tumour cell line growth inhibition, 48 h
DMS 114 small cell lung = tested on: DMS 114 small cell lung
DLD-1 colon = tested on: DLD-1 colon
LXFL 529 NSCLC = tested on: LXFL 529 NSCLC
A498 renal = tested on: A498 renal
KM20L2 colon = tested on: KM20L2 colon
DMS 273 small cell lung = tested on: DMS 273 small cell lung
M19-MEL melanoma = tested on: M19-MEL melanoma
HT29 colon = tested on: HT29 colon
OVCAR-8 ovarian = tested on: OVCAR-8 ovarian
SNB-19 CNS = tested on: SNB-19 CNS
BT-549 breast = tested on: BT-549 breast
NCI/ADR-RES ovarian = tested on: NCI/ADR-RES ovarian

Row | Structure (SMILES) | TGI (DMS 114 small cell lung) | TGI (DLD-1 colon) | TGI (LXFL 529 NSCLC) | TGI (A498 renal) | TGI (KM20L2 colon) | TGI (DMS 273 small cell lung) | TGI (M19-MEL melanoma) | TGI (HT29 colon) | TGI (OVCAR-8 ovarian) | TGI (SNB-19 CNS) | TGI (BT-549 breast) [µM] | TGI (NCI/ADR-RES ovarian) [µM] | GI50 (DMS 114 small cell lung) | GI50 (KM20L2 colon) | GI50 (DMS 273 small cell lung)
1 | COC(=O)C1CCCC2(C1)OCCO2 (stereo not drawn) | > 100 µM | > 100 µM | > 100 µM | > 100 µM | > 100 µM | > 100 µM | > 100 µM | > 100 µM | > 100 µM | > 100 µM | – | – | – | – | –
2 | On1c(-c2ccccc2)c(-c2ccccc2N2CCCC2)c2ccccc21 | > 100 µM | > 100 µM | – | > 100 µM | > 100 µM | > 100 µM | > 100 µM | > 100 µM | > 100 µM | > 100 µM | – | – | – | – | –
3 | Cc1c2n(c(=O)[nH]c1=O)C1OC(CO)C(N=[N+]=[N-])C1O2 (stereo not drawn) | > 100 µM | > 100 µM | > 100 µM | > 100 µM | > 100 µM | > 100 µM | > 100 µM | > 100 µM | > 100 µM | > 100 µM | – | – | – | – | –
4 | CCCCCCCCCCCCCCCCNc1cccc2ccccc12 | > 100 µM | > 100 µM | > 100 µM | – | > 100 µM | > 100 µM | > 100 µM | – | > 100 µM | > 100 µM | – | – | – | – | –
5 | CCCCCCCCCCCC[S+](C)C | 13.4 µM | 25.9 µM | – | 28.1 µM | 20.9 µM | 17.2 µM | 6.45 µM | 18.3 µM | 17.9 µM | 20.5 µM | 7.68 | > 91.9 | – | – | –
6 | COC(=O)C(=Cc1cc(OC)c(OC)c(OC)c1-c1cc2c(cc1C1(C)OCCS1)OCO2)C(=O)OC (stereo not drawn) | > 100 µM | > 100 µM | > 100 µM | – | > 100 µM | 75.1 µM | > 100 µM | > 100 µM | > 100 µM | > 100 µM | – | – | – | – | –
7 | CCOC(=O)N1CCC(N[C@@H]2c3cc4c(cc3C(c3cc(OC)c(O)c(OC)c3)C3C(=O)OC[C@@H]32)OCO4)CC1 (stereo partly drawn) | 12.4 µM and 4.81 µM | 30.6 µM and 14.3 µM | 21.4 µM and > 25 µM | 1.89 µM and 2.08 µM | 14.5 µM and 15.6 µM | 6.03 µM and 9.02 µM | 12.8 µM and 10.2 µM | 15.5 µM and 10.7 µM | 11.6 µM and 10.3 µM | 7.1 µM and 6.95 µM | – | – | 1.9 µM and 0.747 µM | 2.16 µM and 4.5 µM | 0.18 µM and 1.55 µM
8 | Cc1c2cc[n+](C)c(C)c2cc2c1[nH]c1ccccc12 | 10.4 µM | > 100 µM | – | > 100 µM | 44.5 µM | 39.1 µM | 11.9 µM | 83.8 µM | > 93.4 µM | 7.22 µM | 18.9 | > 93.4 | – | – | –
9 | O=C1OCC/C1=N/O | > 100 µM | > 100 µM | > 100 µM | > 100 µM | > 100 µM | > 100 µM | > 100 µM | > 100 µM | > 100 µM | – | – | – | – | – | –
10 | CC(O)CNC(=O)C(C)Oc1ccc(OCC2CCCCC2)cc1 (stereo not drawn) | > 100 µM | – | > 100 µM | > 100 µM | – | > 100 µM | > 100 µM | > 100 µM | > 100 µM | > 100 µM | – | – | – | – | –
11 | COc1cc(OC)c2c(=O)cc(-c3ccc(OC)c(OC)c3OC)oc2c1 | > 100 µM | > 100 µM | > 100 µM | – | > 100 µM | – | > 100 µM | > 100 µM | – | > 100 µM | – | – | – | – | –
12 | O=S(=O)(O)C(CO)c1ccccc1 (stereo not drawn) (tested in a mixture with another compound) | – | – | – | > 100 µM | – | – | – | > 100 µM | > 100 µM | > 100 µM | > 100 | > 100 | – | – | –
13 | COc1ccc(CCN(C)C2CCC(C#N)(c3ccc(OC)c(OC)c3)CC2)cc1OC (stereo not drawn) | – | > 100 µM | > 100 µM | – | > 100 µM | > 100 µM | > 100 µM | > 100 µM | > 100 µM | > 100 µM | – | – | – | – | –
14 | CC1=Cc2cccc(C)c2C(=O)C1=O | – | 4.32 µM | 5.27 µM | 30.9 µM | 35.5 µM | 38.2 µM | 23.6 µM | 32.3 µM | 41.7 µM | 45.3 µM | – | – | – | – | –
15 | Oc1cc(Cl)cc2cccnc12 | – | – | – | 59.6 µM | – | – | – | 32.2 µM | > 100 µM | > 100 µM | > 91.1 | 5.37 | – | – | –
16 | Cc1ccc(/C=N\NC2c3cc(Cl)ccc3Nc3nc(=O)[nH]c(C)c32)cc1 (stereo not drawn) | > 100 µM | > 100 µM | > 100 µM | – | > 100 µM | > 100 µM | > 100 µM | > 100 µM | > 100 µM | > 100 µM | – | – | – | – | –
17 | COC(=O)/C(=C/c1ccc(OC)cc1)C(C(=O)O)=C1CCCC1 | – | > 100 µM | > 100 µM | > 100 µM | > 100 µM | > 100 µM | > 100 µM | > 100 µM | > 100 µM | > 100 µM | – | – | – | – | –
18 | COc1ccc(-c2nc(SCC(=O)NNC(=S)Nc3ccccc3)[nH]c2-c2ccc(OC)cc2)cc1 | – | – | – | 47.9 µM | – | – | – | > 100 µM | > 100 µM | 43.2 µM | 57 | > 100 | – | – | –

— PubChem BioAssay (NCI)
